Reference: US11649220B2 (DEMOTECH.INC., priority 2018, dated 2023)

How the values were obtained:
[1] = test system: Malondialdehyde (MDA) in serum; experiment: In vivo anti-lipid oxidation experiment (serum MDA, TBA method); design: inhibition rate %: concentration or dose not given beside the values; details: MAD lipid peroxidation in vivo; for inhibition rate %: relative to solvent DMSO and Chow averages; for avarage value of OD: serum, TBA method, 532 nm
Excerpt: Experimental principle: Malondialdehyde (MDA) in liposome degradation products could condense with thiobarbituric acid (TBA) to form a red product which has a maximum absorption peak at 532 nm. The spectrophotometer was used to measure the relative absorption value to calculate the antioxidant value.
Reagents: Malondialdehyde (MDA) test kit (article number: A003-1, […], Nanjing Jiancheng), glacial acetic acid of analytically pure grade.
Reagent preparations: 1) Reagent I: Reagent 1 in the kit was taken out from the refrigerator and subjected to natural warming until a transparent liquid is obtained; 2) Reagent II: 170 mL of double-distilled water was added to each bottle and mixed; 3) Reagent III: A dry powder in the kit was dissolved in 60 mL of double-distilled water at 90 to 100° C. After the dry powder was dissolved totally, 30 mL of glacial acetic acid was added and kept in dark place; 4) Standard: 10 nmol/mL tetraethoxypropane.
Experimental procedures: 1) Blank tube: To 2 mL centrifuge tube were added anhydrous ethanol (70 μl), Reagent I (70 μl), Reagent II (0.8 mL) and Reagent III (0.8 mL) in sequence; 2) Standard tube: To 2 mL centrifuge tube were added standard (70 μl), Reagent I (70 μl), Reagent 11 (0.8 mL) and Reagent III (0.8 mL) in sequence; 3) Measuring tube: To 2 mL centrifuge tube were added the serum to be tested and physiological saline (the total volume of serum and physiological saline is 70 μl), Reagent I (70 μl), Reagent II (0.8 mL) and Reagent III (0.8 mL) in sequence; 4) Control tubes: all samples are set up with corresponding control tubes. To a 2 mL centrifuge tube were added the serum to be tested and physiological saline (the total volume of serum and physiological saline is 70 μl), Reagent I (70 μl), Reagent II (0.8 mL) and 50% glacial acetic acid (0.8 mL) in sequence.
After the above reagents were added, the mixture was mixed homogenously. Then the mixture was left in the water bath at 95° C. for 60 minutes. The sample was centrifuged at 4000 rpm for 10 minutes. The supernatant was taken for the measurement of the OD value.
Experimental data processing: the MDA content in serum was calculated as follows: MDA=(OD valuemeasured−OD valuecontrol)/OD valuestandard*concentration of the standard Inhibition rate %=100−(ODsample-average value−average value of Chow)/(average value of the solvent DMSO−average value of Chow)*100

[2] = In vitro free radical inhibition test (DPPH method); details: 8 μL of 20 mmol/L compound in 1 mL DPPH 0.059 mg/mL ethanol, 60 min dark, 517 nm; for inhibition rate %: DPPH; for Relative inhibition ability on free radicals: inhibition rate of AGI1067 on DPPH defined as 100
Excerpt: 1. In Vitro Free Radical Inhibition Test (DPPH Method)
The single electron of DPPH radical has a strong absorption at […], and its alcohol solution is purple. In the presence of a free radical scavenger, the absorption of DPPH radical is weakened or disappeared for the reason that the free radical scavenger is paired with the single electron of DPPH radical, and the degree of discoloration is quantitatively related to the number of electrons DPPH radical receives. Therefore, a spectrophotometer can be used to quickly and quantitatively analyze the free radical scavenging rate of the compound.
1) 1 mL solution of DPPH in absolute ethanol (concentration: 0.059 mg/mL) was taken; 2) 8 μL of the compound to be tested (20 mmol/L) were added; 3) after mixing well, the resultant was kept in dark at room temperature for 60 minutes, 4) the absorbance of the sample at 517 nm was measured.

[3] = test system: golden hamsters (60% high-fat food, STZ induced); experiment: Golden hamster disease model, animal model induction group (16-week-old group): blood biochemical indexes and body weight; type: in vivo
Method: Animals and feed: 1) 8-week-old male golden hamsters with a body weight range of 100±5 g were selected; 2) 60% high-fat food; 3) 30% high-fat food; 4) general feed: NRC standard feed, containing 5% fat, total calories 4200 kcal/kg.
Animal model induction group (16-week-old group): 1) fed with 60% high-fat food for 2 weeks under standard environment; 2) STZ intraperitoneal injection twice every two days, 50 mg/kg each time; 3) After STZ induction, the golden hamsters were continuous fed for 1 week; 4) Blood was taken from the ocular venous plexus, and the initial body weight, blood glucose, total cholesterol, LDL-c, HDL-c and triglyceride were measured, and the golden hamsters were grouped in parallel according to animal biochemical indicators, 8 in each group; 5) Gavage of compounds: 0.1 mL of solution of compound (concentration: 6.8 mg/mL, DMSO solution) and 0.25 mL of whole milk were mixed evenly and administrated by gavage once a day for 2 weeks; 6) Blank control: 0.1 mL of DMSO and 0.25 mL of whole milk were mixed evenly and administrated by gavage once a day for 2 weeks; 7) Observation time: 14 days later, blood was taken from the ocular venous plexus, and the body weight, blood glucose, total cholesterol, LDL-c, HDL-c and triglyceride were measured.
Instruments: Shimadzu UV-1750 spectrophotometer, clinical determination kit (Changchun Huili Biotechnology Co., Ltd.)
Determination of blood glucose: glucose oxidase method, kit
Determination of total cholesterol (COD-PAP method), kit
Determination of low density lipoprotein cholesterol (direct method), kit
Determination of triglyceride (GP-PAP method)
Determination of high density lipoprotein (direct method), kit

[4] = after gavage once a day for 2 weeks
[5] = change rate, gavage once a day for 2 weeks

Compound | inhibition rate % [1] [%] | avarage value of OD [1] | inhibition rate % [2] [%] | Relative inhibition ability on free radicals [2] | further results
COC(=O)CSC(C)(C)Sc1cc(C(C)(C)C)c(O)c(C(C)(C)C)c1 [Compound 1, methyl 2-((2-((3,5-di-tert-butyl-4-hydroxyphenyl)thio)propan-2-yl)thio)acetate] | 54.1 | 7.20 | – | – | –
CC(C)(SCC(=O)O)Sc1cc(C(C)(C)C)c(O)c(C(C)(C)C)c1 [Compound 2, 2-((2-((3,5-di-tert-butyl-4-hydroxyphenyl)thio)propan-2-yl)thio)acetic acid] | 73.5 | 6.45 | 27.1 | 62.1 | –
CCOC(=O)CCSC(C)(C)Sc1cc(C(C)(C)C)c(O)c(C(C)(C)C)c1 [Compound 3, ethyl 3-((2-((3,5-di-tert-butyl-4-hydroxyphenyl)thio)propan-2-yl)thio)propionate] | 34.9 | 7.94 | 43.7 | 100.2 | –
CC(C)(SCCC(=O)O)Sc1cc(C(C)(C)C)c(O)c(C(C)(C)C)c1 [Compound 4, 3-((2-((3,5-di-tert-butyl-4-hydroxyphenyl)thio)propan-2-yl)thio)propanoic acid] | 84.4 | 6.03 | 24.1 | 55.2 | –
CC(C)(C)c1cc(SSc2cc(C(C)(C)C)c(O)c(C(C)(C)CCO)c2)cc(C(C)(C)C)c1O [Compound 6, 2,6-di-tert-butyl-4-((3-(tert-butyl)-4-hydroxy-5-(4-hydroxy-2-methylbutan-2-yl)phenyl)disulfanediyl)phenol] | 71.2 | 6.54 | 53.2 | 95.2 | –
COc1cc(SC(C)(C)Sc2ccc(O)c(OC)c2)ccc1O [Compound 7, 4,4′-(propane-2,2-diylbis(thio))bis(2-methoxyphenol)] | 47.6 | 7.45 | 73.9 | 169.4 | –
CC(C)(Sc1cc(C(C)(C)C)c(O)c(C(C)(C)CCO)c1)Sc1cc(C(C)(C)C)c(O)c(C(C)(C)CCO)c1 [Compound 9, 4,4′-(propane-2,2-diylbis(thio))bis(2-(tert-butyl)-6-(4-hydroxy-2-methylbutan-2-yl)phenol)] | 62.9 | 6.86 | 55.1 | 126.3 | –
CC(C)(Sc1cc(C(C)(C)C)c(O)c(C(C)(C)C)c1)Sc1cc(C(C)(C)C)c2c(c1)C(C)(C)CCO2 [Compound 10, 2,6-di-tert-butyl-4-((2-((8-(tert-butyl)-4,4-dimethylchroman-6-yl)thio)propan-2-yl)thio)phenol] | 47.6 | 7.45 | 41.1 | 94.1 | –
CC(=O)OCCC(C)(C)c1cc(SC(C)(C)Sc2cc(C(C)(C)C)c(O)c(C(C)(C)C)c2)cc(C(C)(C)C)c1O [Compound 14, 3-(3-(tert-butyl)-5-((2-((3,5-di-tert-butyl-4-hydroxyphenyl)thio)propan-2-yl)thio)-2-hydroxyphenyl)-3-methylbutyl acetate] | 55.9 | 7.13 | 37.3 | 85.5 | –
CC(C)(Sc1cc(C(C)(C)C)c(O)c(C(C)(C)C)c1)Sc1cc(C(C)(C)C)c(O)c(C(C)(C)C)c1 [Compound 30, probucol, reference compound] | 53.3 | 7.23 | – | – | change rate of blood glucose % ([3]; 0.1 mL of 6.8 mg/mL DMSO solution + 0.25 mL whole milk by gavage once a day for 2 weeks): −1.5%; change rate of body weight after deduction of DMSO blank % ([3]; DMSO blank deducted): −4.1%; average body weight after administration/g [3, 4]: 141.3 g; change of body weight/g [3, 4]: 7.6 g; change rate of body weight % [3, 4]: 5.7%; HDL % [3, 5]: 63.3%; LDL % [3, 5]: −12.2%; total cholesterol % [3, 5]: 8.7%; triglyceride % [3, 5]: −6.5%
